Legend:
Type in all cases: cell-based
[1] = tested on: MYC target genes CR2, RGS16, CAMKV and nucleolin; experiment: MYC transactivation of target genes in U2OS-MYCER cells, RT-qPCR; conditions: 5 μM, 24 hours
Description: F) Inhibition of MYC transactivation of target genes CR2, RSG16, CAKMV and nucleolin as determined by RT-qPCR analysis, based on three biological experiments with three technical repeats each. U2OS-MYCER cells were treated with (MYC ON) or without (MYC OFF) 100 nM 4-hydroxy-tamoxifen (4-OHT) for 4 hours, after which DMSO or MYCMI-7 (5 μM) were added for 24 hours before total RNA was extraction. Fold changes in mRNA expression are presented relative to DMSO in MYC OFF cells after normalization to GAPDH, used as reference gene.

p53 expression = p53 expression by western blot; conditions: 5 μM, HCT116 and Kelly cells
Description: (§1) A) Measurement of MYC mRNA expression by RTqPCR after treatment with MYCMI-7 and different topoisomerase inhibitors at indicated concentrations. […] D) Western blot analysis of p53 and p21 expression after exposure to 5 μM MYCMI-7, ellipticine or camptothecin (CPT) in HCT116 cells. E) Western blot analysis of phospho-ATM, total ATM and p53 expression after exposure to indicated concentrations of MYCMI-7 and ellipticine in A375 cells after 3 hrs treatment.
For western blot equal amounts of proteins ([…]) were separated on a 4-12% SDS-PAGE gel. Proteins were transferred to Immobilion-P membrane (Millipore) and detected by immunostaining and chemoluminescence (Immobilion western HRP substrate; Millipore). For immunoprecipitations 500-1000 μg of protein was used. […] Briefly, cells were crosslinked with 1% formaldehyde on ice for 6 minutes. Nuclear chromatin was sonicated on ice to fragments from 0.3 kb to 0.5 kb. Nuclear chromatin equivalent to 2.5×10^7 cells was immunoprecipitated with 2 μg antibody.

MYC mRNA = MYC mRNA expression by RT-qPCR
Description: as §1

[2] = tested on: Normal human dermal fibroblasts (NHDF); experiment: resazurin, cell count and trypan blue, NHDF
Description: FIG. 4: MYCMI-7 induces apoptosis in malignant cells and growth arrest in normal cells. A) Cell cycle distribution analysis by flow cytometry of MYC-regulated P493-6 cells and normal rat embryo fibroblasts (REFs). Left panel, P493-6 synchronized in G0 by 24 hours treatment of […] doxycycline. Doxycycline was removed and the cells were harvested 48 hours after the addition of fresh medium containing DMSO or 5 μM MYCMI-7. Right panel, flow cytometry analysis of normal REFs treated with DMSO or 5 μM MYCMI-7. B) Apoptosis assay using the Cell Death Detection ELISA^plus kit. Left panel, immortalized Rat1 fibroblasts with different MYC status after 24 hours of 5 μM MYCMI-7 treatment, middle panel and right panels, normal REFs and normal peripheral blood lymphocytes, respectively, after 24 and 48 hours of 5 μM MYCMI-7 treatment. C) Measurement of viability and apoptosis by Apo-Tox Glo Triplex assay in A375 melanoma cells after 3 days of treatment with MYCMI-7 with the indicated concentrations. […] E) NHDFs treated with 3 μM MYCMI-7 for 72 hrs. Viability was measured by trypan blue exclusion assay. F) Cell growth measured with Cyt62 assay of primary normal human epidermal melanocytes (NHEM) treated for 72 hours with MYCMI-7, G) Viability measured by trypan blue exclusion assay of NHEM after treatment for 72 hours with MYCMI-7.

MYC:MAX interaction = MYC:MAX interaction (Homo sapiens, UniProt P01106); experiment: co-immunoprecipitation of endogenous MYC and MAX; conditions: 5 μM, MCF7 cells
Description: FIG. 1: MYCMI-7 (Compound Example 1) inhibits the MYC:MAX interaction in cells, bind MYC in vitro, and blocks MYC function. A) Molecular structure of MYCMI-7. B-E) split Gaussia luciferase (GLuc) assay. MYC or MYCN and MAX Gluc constructs were co-transfected into HeLa cells together with a firefly luciferase vector. 24 hours post transfection cells were treated with compounds, and after another 17-24 hours cells were harvested and both GLuc and firefly luciferase activities were measured. The mean of three different experiments is shown. Treatment with: B) 5 μM of MYCMI-7, 64 μM 10058-F4 or 5 μM JQ1, respectively, C) 6.5 μM MYCMI-7 on cells expressing MYC:MAX GLuc vs. GCN4:GCN4 GLuc, D) 5 μM MYCMI-7 and 5 μM ellipticine. E) 5 μM MYCMI-7 for various time points. F) in situ proximity ligation assay (isPLA). […] G) Quantification of isPLA dots. […] J) MYC target gene ODC1 expression after treatment with 5 μM MYCMI-7, quantified by qPCR. […] L) Recombinant MYC bHLHZip protein domain immobilized onto a CM5 chip was subjected to various concentrations of MYCMI-7 and the complex of MYCbHLHZip-MYCMI-7 was measured as response units by SPR. […]
For western blot equal amounts of proteins ([…]) were separated on a 4-12% SDS-PAGE gel. Proteins were transferred to Immobilion-P membrane (Millipore) and detected by immunostaining and chemoluminescence (Immobilion western HRP substrate; Millipore). […]

Sequence of MYC:MAX interaction (P01106 16-454): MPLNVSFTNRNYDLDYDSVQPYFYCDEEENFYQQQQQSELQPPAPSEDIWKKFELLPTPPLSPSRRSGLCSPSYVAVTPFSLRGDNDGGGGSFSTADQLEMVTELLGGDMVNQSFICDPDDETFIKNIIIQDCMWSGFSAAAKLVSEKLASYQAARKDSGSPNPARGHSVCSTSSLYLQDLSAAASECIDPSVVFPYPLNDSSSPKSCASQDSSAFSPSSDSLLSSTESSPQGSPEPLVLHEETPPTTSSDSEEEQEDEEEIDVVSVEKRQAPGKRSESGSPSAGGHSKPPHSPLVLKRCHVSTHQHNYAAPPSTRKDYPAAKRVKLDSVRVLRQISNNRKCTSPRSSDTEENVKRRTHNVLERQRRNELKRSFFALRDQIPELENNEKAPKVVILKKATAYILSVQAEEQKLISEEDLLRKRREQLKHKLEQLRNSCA

CCN(CC)CC[n+]1ccc2c(C)c3[nH]c4ccccc4c3c(C)c2c1 [MYCMI-7, 2-(5,11-Dimethyl-6H-25-pyrido[4,3-b]carbazol-2-yl)-N,N-diethylethanamine bromide]
4-OHT-induced expression of CR2, RGS16, CAMKV and nucleolin [1]: significantly reduced | p53 expression (p53 expression; early (3 hrs)): no effect | p53 expression (p53 expression; late (24 hrs)): only a minor increase | MYC expression (mRNA) (MYC mRNA; 5 μM): only minor effect | MYC mRNA expression (MYC mRNA; MCF7 cells, various time points): not due to reduced MYC mRNA expression | cell number and metabolic activity normalized to DMSO ([2]; 3 days, low micromolar concentrations): lower overall cell number and metabolic activity | cell viability (trypan blue) ([2]; 72 hrs): unaffected | MYC:MAX interaction by co-IP (MYC:MAX interaction; 1 hour after treatment): decreased | MYC:MAX interaction by co-IP (MYC:MAX interaction; 4 hours): reduced drastically

From patent publication US20250122193A1, “NOVEL PYRIDOCARBAZOLIUM COMPOUNDS AND MEDICAL USES THEREOF” (MyCural Therapeutics, priority 2021, published 2025)
